In patent US8993574B2, “Pyrrole antifungal agents” (F2G Ltd, priority 2008, dated 2015):
≈ marks a conversion by molar mass, not a printed value.

Key:
Assay type in all cases: cell-based
Aspergillus flavus [1] = assay: MIC, YAG medium; conditions: 24 h at 35° C, MIC banded into grades; for MIC: Aspergillus flavus, 24 h, read-out: MIC grade, A. flavus
Outline: (§1)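 Growth inhibition was measured by absorbance at 485 nm following 24 h at 35° C. Spores harvested after 5 days on Sabouraud agar served as inoculum (1−2×10^4 cfu/mL, YAG medium). The lowest drug level producing >70% inhibition was taken as MIC.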

[2] = test system: Aspergillus fumigatus AF210; assay: MIC, YAG medium; conditions: 24 h at 35° C, MIC banded into grades; for MIC: Aspergillus fumigatus, read-out: MIC grade, A. fumigatus 210
Outline: as §1

[3] = test system: Aspergillus fumigatus AF293; assay: MIC, YAG medium; conditions: 24 h at 35° C, MIC banded into grades; for MIC: Aspergillus fumigatus, read-out: MIC grade, A. fumigatus
Outline: as §1

Aspergillus niger [4] = assay: MIC, YAG medium; conditions: 24 h at 35° C, MIC banded into grades; for MIC: Aspergillus niger, read-out: MIC grade, A. niger
Outline: as §1

Aspergillus terreus AT49 [5] = assay: MIC, YAG medium; conditions: 24 h at 35° C, MIC banded into grades; for MIC: Aspergillus terreus, read-out: MIC grade, A. terreus 49
Outline: as §1

Aspergillus terreus AT4 [6] = assay: MIC, YAG medium; conditions: 24 h at 35° C, MIC banded into grades; for MIC: Aspergillus terreus, read-out: MIC grade, A. terreus
Outline: as §1

Aspergillus flavus [7] = assay: MIC, RPMI medium; conditions: MIC banded into grades; for MIC: Aspergillus flavus, read-out: MIC grade, A. flavus
Outline: (§2)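 OD485-based endpoint after 24-48 h/35° C; MIC = lowest concentration, >80% inhibition relative to drug-free. RPMI/2% glucose/0.135 M MOPS pH 7.0; 1−2×10^4 cfu/mL; range 50-0.05 mg/L.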

[8] = test system: Aspergillus fumigatus AF210; assay: MIC, RPMI medium; conditions: for MIC: Aspergillus fumigatus, AF210, MIC banded into grades, read-out: MIC grade, A. fumigatus 210; for MIC grade, A. fumigatus 210: MIC banded into grades
Outline: as §2

[9] = test system: Aspergillus fumigatus AF293; assay: MIC, RPMI medium; conditions: for MIC: Aspergillus fumigatus, AF293, MIC banded into grades, read-out: MIC grade, A. fumigatus; for MIC grade, A. fumigatus: MIC banded into grades
Outline: as §2

Aspergillus niger [10] = assay: MIC, RPMI medium; conditions: MIC banded into grades; for MIC: Aspergillus niger, read-out: MIC grade, A. niger
Outline: as §2

Aspergillus terreus AT49 [11] = assay: MIC, RPMI medium; conditions: for MIC: Aspergillus terreus, AT49, MIC banded into grades, read-out: MIC grade, A. terreus 49; for MIC grade, A. terreus 49: MIC banded into grades
Outline: as §2

Aspergillus terreus AT4 [12] = assay: MIC, RPMI medium; conditions: for MIC: Aspergillus terreus, AT4, MIC banded into grades, read-out: MIC grade, A. terreus; for MIC grade, A. terreus: MIC banded into grades
Outline: as §2

Row | SMILES | MIC (Aspergillus flavus [1]) [µg/mL] | MIC [2] [µg/mL] | MIC [3] [µg/mL] | MIC (Aspergillus niger [4]) [µg/mL] | MIC (Aspergillus terreus AT49 [5]) [µg/mL] | MIC (Aspergillus terreus AT4 [6]) [µg/mL] | MIC (Aspergillus flavus [7]) [µg/mL] | MIC [8] [µg/mL] | MIC [9] [µg/mL] | MIC (Aspergillus niger [10]) [µg/mL] | MIC (Aspergillus terreus AT49 [11]) [µg/mL] | MIC (Aspergillus terreus AT4 [12]) [µg/mL] | other results
1 | Cc1cc(C)nc(N2CCN(c3ccc(NC(=O)C(=O)c4c(-c5ccccc5)c(F)c(C)n4C)cc3)CC2)c1 [Example 90, N-{4-[4-(4,6-Dimethyl-pyridin-2-yl)-piperazin-1-yl]-phenyl}-2-(4-fluoro-1,5-dimethyl-3-phenyl-1H-pyrrol-2-yl)-2-oxo-acetamide] | < 1 | < 1 | < 1 | < 1 | < 1 | < 1 | < 1 | < 1 | < 1 | < 1 | < 1 | < 1 | 
2 | Cc1cc(C)nc(N2CCN(c3ccc(NC(=O)C(=O)c4c(-c5ccccc5)cc(C)n4Cc4ccccn4)cc3)CC2)c1 [Example 91, N-{4-[4-(4,6-Dimethyl-pyridin-2-yl)-piperazin-1-yl]-phenyl}-2-(5-methyl-3-phenyl-1-pyridin-2-ylmethyl-1H-pyrrol-2-yl)-2-oxo-acetamide] | > 10 | 1 to 10 (≈ 1.71 to 17.1 µM) | 1 to 10 (≈ 1.71 to 17.1 µM) | > 10 | 1 to 10 (≈ 1.71 to 17.1 µM) | > 10 | > 10 | > 10 | > 10 | > 10 | > 10 | > 10 | 
3 | COCCn1c(C)cc(-c2ccccc2)c1C(=O)C(=O)Nc1ccc(N2CCN(c3cc(C)cc(C)n3)CC2)cc1Cl [Example 92, N-{2-Chloro-4-[4-(4,6-dimethyl-pyridin-2-yl)-piperazin-1-yl]-phenyl}-2-[1-(2-methoxy-ethyl)-5-methyl-3-phenyl-1H-pyrrol-2-yl]-2-oxo-acetamide] |  |  |  |  |  |  |  |  |  |  |  |  | MIC grade, A. flavus (Aspergillus flavus [1]): 3 (A grade of 3 represents an MIC of less than 1 mg/L); MIC grade, A. fumigatus 210 [2]: 3 (A grade of 3 represents an MIC of less than 1 mg/L); MIC grade, A. fumigatus [3]: 3 (A grade of 3 represents an MIC of less than 1 mg/L); MIC grade, A. niger (Aspergillus niger [4]): 3 (A grade of 3 represents an MIC of less than 1 mg/L); MIC grade, A. terreus 49 (Aspergillus terreus AT49 [5]): 3 (A grade of 3 represents an MIC of less than 1 mg/L); MIC grade, A. terreus (Aspergillus terreus AT4 [6]): 3 (A grade of 3 represents an MIC of less than 1 mg/L); MIC grade, A. flavus (Aspergillus flavus [7]): 1 (a grade of 1 represents an MIC of greater than 10 mg/L); MIC grade, A. fumigatus 210 [8]: 3 (A grade of 3 represents an MIC of less than 1 mg/L); MIC grade, A. fumigatus [9]: 3 (A grade of 3 represents an MIC of less than 1 mg/L); MIC grade, A. niger (Aspergillus niger [10]): 3 (A grade of 3 represents an MIC of less than 1 mg/L); MIC grade, A. terreus 49 (Aspergillus terreus AT49 [11]): 1 (a grade of 1 represents an MIC of greater than 10 mg/L); MIC grade, A. terreus (Aspergillus terreus AT4 [12]): 1 (a grade of 1 represents an MIC of greater than 10 mg/L)
4 | Cc1cc(C)nc(N2CCN(c3ccc(NC(=O)C(=O)c4c(-c5ccccc5)cc(C)n4Cc4cccnc4)cc3)CC2)c1 [Example 93, N-{4-[4-(4,6-Dimethyl-pyridin-2-yl)-piperazin-1-yl]-phenyl}-2-(5-methyl-3-phenyl-1-pyridin-3-ylmethyl-1H-pyrrol-2-yl)-2-oxo-acetamide] | 1 to 10 (≈ 1.71 to 17.1 µM) | < 1 | < 1 | < 1 | 1 to 10 (≈ 1.71 to 17.1 µM) | 1 to 10 (≈ 1.71 to 17.1 µM) | > 10 | 1 to 10 (≈ 1.71 to 17.1 µM) | 1 to 10 (≈ 1.71 to 17.1 µM) | 1 to 10 (≈ 1.71 to 17.1 µM) | > 10 | > 10 | 
5 | COCCn1c(C)c(F)c(-c2ccccc2)c1C(=O)C(=O)Nc1ccc(N2CCN(c3cc(C)cc(C)n3)CC2)cc1 [Example 94, N-{4-[4-(4,6-Dimethyl-pyridin-2-yl)-piperazin-1-yl]-phenyl}-2-[4-fluoro-1-(2-methoxy-ethyl)-5-methyl-3-phenyl-1H-pyrrol-2-yl]-2-oxo-acetamide] | 1 to 10 (≈ 1.76 to 17.6 µM) | < 1 | < 1 | 1 to 10 (≈ 1.76 to 17.6 µM) | < 1 | < 1 | > 10 | 1 to 10 (≈ 1.76 to 17.6 µM) | < 1 | 1 to 10 (≈ 1.76 to 17.6 µM) | 1 to 10 (≈ 1.76 to 17.6 µM) | 1 to 10 (≈ 1.76 to 17.6 µM) | 
6 | Cc1cc(-c2ccccc2)c(C(=O)C(=O)Nc2ccc(N3CCN(c4ccccn4)CC3)cc2F)n1C [Example 95, 2-(1,5-Dimethyl-3-phenyl-1H-pyrrol-2-yl)-N-[2-fluoro-4-(4-pyridin-2-yl-piperazin-1-yl)-phenyl]-2-oxo-acetamide] | < 1 | < 1 | < 1 | < 1 | < 1 | < 1 | < 1 | < 1 | < 1 | < 1 | < 1 | < 1 | 
7 | COCCn1c(C)cc(-c2ccccc2)c1C(=O)C(=O)Nc1ccc(N2CCN(c3ccccn3)CC2)cc1F [Example 96, N-[2-Fluoro-4-(4-pyridin-2-yl-piperazin-1-yl)-phenyl]-2-[1-(2-methoxy-ethyl)-5-methyl-3-phenyl-1H-pyrrol-2-yl]-2-oxo-acetamide] | < 1 | < 1 | < 1 | < 1 | < 1 | < 1 | 1 to 10 (≈ 1.85 to 18.5 µM) | < 1 | < 1 | < 1 | 1 to 10 (≈ 1.85 to 18.5 µM) | < 1 | 
8 | Cc1cc(C)nc(N2CCN(c3ccc(NC(=O)C(=O)c4c(-c5ccccc5)cc(C)n4CCOC(C)C)cc3)CC2)c1 [Example 97, N-{4-[4-(4,6-Dimethyl-pyridin-2-yl)-piperazin-1-yl]-phenyl}-2-[1-(2-isopropoxy-ethyl)-5-methyl-3-phenyl-1H-pyrrol-2-yl]-2-oxo-acetamide] | 1 to 10 (≈ 1.72 to 17.2 µM) | < 1 | 1 to 10 (≈ 1.72 to 17.2 µM) | 1 to 10 (≈ 1.72 to 17.2 µM) | 1 to 10 (≈ 1.72 to 17.2 µM) | 1 to 10 (≈ 1.72 to 17.2 µM) | 1 to 10 (≈ 1.72 to 17.2 µM) | 1 to 10 (≈ 1.72 to 17.2 µM) | < 1 | 1 to 10 (≈ 1.72 to 17.2 µM) | 1 to 10 (≈ 1.72 to 17.2 µM) | 1 to 10 (≈ 1.72 to 17.2 µM) | 
9 | COC(=O)Cn1c(C)cc(-c2ccccc2)c1C(=O)C(=O)Nc1ccc(N2CCN(c3cc(C)cc(C)n3)CC2)cc1Cl [Example 98, (2-{2-Chloro-4-[4-(4,6-dimethyl-pyridin-2-yl)-piperazin-1-yl]-phenylaminooxalyl}-5-methyl-3-phenyl-pyrrol-1-yl)-acetic acid methyl ester] |  |  |  |  |  |  |  |  |  |  |  |  | MIC grade, A. flavus (Aspergillus flavus [1]): 1 (a grade of 1 represents an MIC of greater than 10 mg/L); MIC grade, A. fumigatus 210 [2]: 3 (A grade of 3 represents an MIC of less than 1 mg/L); MIC grade, A. fumigatus [3]: 3 (A grade of 3 represents an MIC of less than 1 mg/L); MIC grade, A. niger (Aspergillus niger [4]): 3 (A grade of 3 represents an MIC of less than 1 mg/L); MIC grade, A. terreus 49 (Aspergillus terreus AT49 [5]): 3 (A grade of 3 represents an MIC of less than 1 mg/L); MIC grade, A. terreus (Aspergillus terreus AT4 [6]): 3 (A grade of 3 represents an MIC of less than 1 mg/L); MIC grade, A. flavus (Aspergillus flavus [7]): 2 (A grade of 2 represents an MIC of from 1 to 10 mg/L); MIC grade, A. fumigatus 210 [8]: 3 (A grade of 3 represents an MIC of less than 1 mg/L); MIC grade, A. fumigatus [9]: 3 (A grade of 3 represents an MIC of less than 1 mg/L); MIC grade, A. niger (Aspergillus niger [10]): 3 (A grade of 3 represents an MIC of less than 1 mg/L); MIC grade, A. terreus 49 (Aspergillus terreus AT49 [11]): 3 (A grade of 3 represents an MIC of less than 1 mg/L); MIC grade, A. terreus (Aspergillus terreus AT4 [12]): 3 (A grade of 3 represents an MIC of less than 1 mg/L)
10 | Cc1cc(-c2ccccc2)c(C(=O)C(=O)Nc2ccc(N3CCCC3)nc2)n1C [Example 99, 2-(1,5-Dimethyl-3-phenyl-1H-pyrrol-2-yl)-2-oxo-N-(6-pyrrolidin-1-yl-pyridin-3-yl)-acetamide] | < 1 | < 1 | 1 to 10 (≈ 2.57 to 25.7 µM) | 1 to 10 (≈ 2.57 to 25.7 µM) | < 1 | < 1 | < 1 | 1 to 10 (≈ 2.57 to 25.7 µM) | < 1 | < 1 | < 1 | < 1 | 
11 | Cc1cc(-c2ccccc2)c(C(=O)C(=O)Nc2ccc(-c3ncco3)cc2F)n1C [Example 100, 2-(1,5-Dimethyl-3-phenyl-1H-pyrrol-2-yl)-N-[2-fluoro-4-oxazol-2-yl-phenyl)-2-oxo-acetamide] | < 1 | 1 to 10 (≈ 2.48 to 24.8 µM) | < 1 | < 1 | < 1 | < 1 | < 1 | 1 to 10 (≈ 2.48 to 24.8 µM) | < 1 | < 1 | < 1 | < 1 | 
